SMILES strings stand for the structures. Inconclusive results and toxic doses are left out.

The experiment concerns CD2F1 mice, L1210 leukemia ip, survival T/C. The experiment is described as follows: NCI In Vivo Anticancer Drug Screen. Data for tumor model L1210 Leukemia (intraperitoneal) in CD2F1 (CDF1) mice. The conditions noted are these: endpoint: mean survival time, higher = longer survival. Summed up:
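Activity against a transplanted murine tumor was judged by comparing the compound group with a vehicle group. The outcome in the treated animals was divided by that in the controls.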

Setting [1] is: dose: 100.0 mg/kg/injection, schedule: Q04DX003 (ip), vehicle: saline.
Where [2] appears, read: dose: 100.0 mg/kg/injection, schedule: Q01DX009 (ip), vehicle: saline with Tween-80.
[3] abbreviates: dose: 100.0 mg/kg/injection, schedule: Q04DX003 (ip), vehicle: saline with Tween-80.
[4] abbreviates: dose: 200.0 mg/kg/injection, schedule: Q01DX009 (ip), vehicle: saline with Tween-80.
[5] abbreviates: dose: 200.0 mg/kg/injection, schedule: Q04DX003 (ip), vehicle: saline with Tween-80.
The mark [6] stands for this setting: dose: 400.0 mg/kg/injection, schedule: Q01DX009 (ip), vehicle: saline with Tween-80.
Setting [7] is: dose: 400.0 mg/kg/injection, schedule: Q04DX003 (ip), vehicle: saline with Tween-80.
Where [8] appears, read: dose: 25.0 mg/kg/injection, schedule: Q01DX009 (ip), vehicle: saline with Tween-80.
Where [9] appears, read: dose: 50.0 mg/kg/injection, schedule: Q01DX009 (ip), vehicle: saline with Tween-80.
Where [10] appears, read: dose: 6.25 mg/kg/injection, schedule: Q01DX009 (ip), vehicle: saline with Tween-80.
Where [11] appears, read: dose: 12.5 mg/kg/injection, schedule: Q01DX009 (ip), vehicle: saline with Tween-80.
Where [12] appears, read: dose: 12.5 mg/kg/injection, schedule: Q04DX003 (ip), vehicle: saline with Tween-80.
Where [13] appears, read: dose: 25.0 mg/kg/injection, schedule: Q04DX003 (ip), vehicle: saline with Tween-80.
[14] abbreviates: dose: 100.0 mg/kg/injection, schedule: Q01DX001 (ip), vehicle: saline.
Setting [15] is: dose: 200.0 mg/kg/injection, schedule: Q01DX001 (ip), vehicle: saline.
Setting [16] is: dose: 400.0 mg/kg/injection, schedule: Q01DX001 (ip), vehicle: saline.

Take `CCN(CC)CCOC(=O)C(c1ccccc1)C(C)(O)CC` (centres undefined): the T/C runs as follows: (dose: 25.0 mg/kg/injection, schedule: Q01DX009 (ip), vehicle: saline) 101 % of control; (dose: 50.0 mg/kg/injection, schedule: Q01DX009 (ip), vehicle: saline) 87 % of control; (dose: 100.0 mg/kg/injection, schedule: Q01DX009 (ip), vehicle: saline) 104 % of control; under setting [1], 88 % of control.
`COC(=O)c1cccc(OC)c1OC`: the T/C is 101 % of control under setting [2]; 108 % of control under setting [3]; 96 % of control under setting [4]; 98 % of control under setting [5]; 98 % of control under setting [6]; 100 % of control under setting [7].
On to `O=S1(=O)CCCC1C(O)c1ccccc1` (centres undefined), for which the T/C runs as follows: (dose: 100.0 mg/kg/injection, schedule: Q04DX003 (ip), vehicle: other) 100 % of control; (dose: 200.0 mg/kg/injection, schedule: Q04DX003 (ip), vehicle: other) 95 % of control; (dose: 400.0 mg/kg/injection, schedule: Q04DX003 (ip), vehicle: other) 95 % of control.
On to `Cc1cc(C(C)(C)C)c(OC(=S)N(C)C)c(C(C)(C)C)c1`, for which the T/C under setting [8] was 92 % of control and the T/C under setting [9] was 89 % of control.
Regarding `O=C(NC(=S)c1ccccc1)Nc1ccc(Cl)cc1`, the T/C is 90 % of control (dose: 100.0 mg/kg/injection, schedule: Q01DX001 (ip), vehicle: saline with Tween-80); 94 % of control (dose: 200.0 mg/kg/injection, schedule: Q01DX001 (ip), vehicle: saline with Tween-80); 94 % of control (dose: 400.0 mg/kg/injection, schedule: Q01DX001 (ip), vehicle: saline with Tween-80).
Consider `Cc1nnc(C(N)=O)c(=O)[nH]1`, for which the T/C was 102 % of control (dose: 100.0 mg/kg/injection, schedule: Q01DX001 (ip), vehicle: Klucel (hydroxypropylcellulose) (HPC)); 98 % of control (dose: 200.0 mg/kg/injection, schedule: Q01DX001 (ip), vehicle: Klucel (hydroxypropylcellulose) (HPC)); 100 % of control (dose: 400.0 mg/kg/injection, schedule: Q01DX001 (ip), vehicle: Klucel (hydroxypropylcellulose) (HPC)).
As for `COc1cc(OC)c(/C=C/c2cc3ccccc3c[n+]2C)c(OC)c1`, the T/C reads like this: (dose: 3.13 mg/kg/injection, schedule: Q01DX009 (ip), vehicle: saline with Tween-80) 117 % of control; under setting [10], 117 % of control.
With `Cc1ccc(N/C=C\c2cc[n+](C)cc2)nc1`, the T/C reads like this: (dose: 75.0 mg/kg/injection, schedule: Q01DX001 (ip), vehicle: saline) 103 % of control; (dose: 150.0 mg/kg/injection, schedule: Q01DX001 (ip), vehicle: saline) 106 % of control; (dose: 300.0 mg/kg/injection, schedule: Q01DX001 (ip), vehicle: saline) 105 % of control.
Consider `O=[N+]([O-])CC1CCCCC1O` (centres undefined), for which the T/C under setting [10] was 89 % of control; the T/C (dose: 6.25 mg/kg/injection, schedule: Q04DX003 (ip), vehicle: saline with Tween-80) is 102 % of control; the T/C under setting [11] is 91 % of control; the T/C under setting [12] is 96 % of control; the T/C under setting [8] is 94 % of control; the T/C under setting [13] is 93 % of control.
As for `CC(=O)Nc1ncc2ccccc2c1-c1ccc(NC(=O)CCCl)cc1`, the T/C reads like this: (dose: 25.0 mg/kg/injection, schedule: Q04DX003 (ip), vehicle: DMSO) 101 % of control; (dose: 50.0 mg/kg/injection, schedule: Q04DX003 (ip), vehicle: DMSO) 96 % of control; (dose: 100.0 mg/kg/injection, schedule: Q04DX003 (ip), vehicle: DMSO) 94 % of control; (dose: 200.0 mg/kg/injection, schedule: Q04DX003 (ip), vehicle: DMSO) 91 % of control; (dose: 400.0 mg/kg/injection, schedule: Q04DX003 (ip), vehicle: DMSO) 94 % of control.
`Cc1nccn1C(C)c1ccccc1` (centres undefined): the T/C reads like this: (dose: 10.0 mg/kg/injection, schedule: Q04DX003 (ip), vehicle: saline) 105 % of control; (dose: 20.0 mg/kg/injection, schedule: Q04DX003 (ip), vehicle: saline) 94 % of control; (dose: 40.0 mg/kg/injection, schedule: Q04DX003 (ip), vehicle: saline) 92 % of control.
For the molecule `CN(Cc1ccc2nc(N)nc(N)c2n1)c1ccc(C(=O)NC(CCC(=O)O)C(=O)O)cc1` (centres undefined), the T/C was 150 % of control (dose: 0.12 mg/kg/injection, schedule: Q01DX005 (ip), vehicle: sodium bicarbonate); 115 % of control (dose: 0.5 mg/kg/injection, schedule: Q01DX005 (ip), vehicle: sodium bicarbonate); 101 % of control (dose: 31.25 micrograms/kg/injection, schedule: Q01DX005 (ip), vehicle: sodium bicarbonate); 116 % of control (dose: 62.5 micrograms/kg/injection, schedule: Q01DX005 (ip), vehicle: sodium bicarbonate); 122 % of control (dose: 125.0 micrograms/kg/injection, schedule: Q01DX005 (ip), vehicle: sodium bicarbonate).
For the molecule `Cc1[nH]c2ccccc2c1C(c1cc(Cl)cc(Cl)c1O)c1c(C)[nH]c2ccccc12`, the T/C is 88 % of control under setting [8], 86 % of control under setting [9], 86 % of control under setting [2] and 86 % of control under setting [4].
For `NC(N)=N/N=C/c1ccc(-c2ccccc2)cc1`, the T/C (dose: 6.25 mg/kg/injection, schedule: Q01DX001 (ip), vehicle: saline with Tween-80) is 95 % of control; the T/C (dose: 12.5 mg/kg/injection, schedule: Q01DX001 (ip), vehicle: saline with Tween-80) is 109 % of control; the T/C (dose: 25.0 mg/kg/injection, schedule: Q01DX001 (ip), vehicle: saline with Tween-80) is 100 % of control.
As to `Cc1ccc(NC(=O)c2ccccc2Cl)c(C)c1`, the T/C is 110 % of control under setting [2]; 104 % of control under setting [3]; 93 % of control under setting [4]; 101 % of control under setting [5]; 98 % of control under setting [6]; 97 % of control under setting [7].
Turning to `S=[As](c1ccccc1)(c1ccccc1)c1ccccc1`, the T/C is, setting by setting: under setting [14], 103 % of control; under setting [15], 100 % of control; under setting [16], 91 % of control.
Take `O=S1(=O)CC(O)C(Br)C1` (centres undefined): the T/C under setting [3] is 103 % of control, the T/C under setting [5] was 101 % of control and the T/C under setting [7] is 92 % of control.
As to `COC(=O)N1c2ccccc2C=CC1C#N` (centres undefined), the T/C was 89 % of control under setting [10]; 103 % of control under setting [11]; 97 % of control under setting [12]; 95 % of control under setting [8]; 97 % of control under setting [13]; 98 % of control under setting [9]. Further, the T/C is 97 % of control (dose: 50.0 mg/kg/injection, schedule: Q04DX003 (ip), vehicle: saline with Tween-80); 101 % of control under setting [2]; 98 % of control under setting [3]; 95 % of control under setting [5].
Regarding `Cc1c(/C=N/NC=O)[nH]c(=O)[nH]c1=O`, the T/C under setting [14] is 89 % of control, the T/C under setting [15] is 91 % of control and the T/C under setting [16] was 86 % of control.
With `CCN(CC)C(=O)c1cc[n+](Cc2ccc(Cl)cc2)cc1`, the T/C under setting [1] was 106 % of control and the T/C (dose: 200.0 mg/kg/injection, schedule: Q04DX003 (ip), vehicle: saline) is 103 % of control.

The record behind these values is PubChem BioAssay AID256 (DTP/NCI, 2004).
